Values after ≈ are worked out from the molar mass of the structure shown.
Experiments:
[1] = target: Sigma non-opioid intracellular receptor 1 (Cavia porcellus, UniProt Q60492); experiment: Displacement of [3H]-(+)pentazocine from sigma-1 receptor in guinea pig brain membranes after 180 mins by scintillation counting method; type: cell membranes, Membrane
[2] = target: T1, Sigma intracellular receptor 2 (Rattus norvegicus, UniProt Q5U3Y7); experiment: Displacement of [3H]-DTG from sigma-2 receptor in rat liver membranes after 180 mins by scintillation counting method; type: cell membranes, Membrane
T1 sequence (Q5U3Y7 whole entry): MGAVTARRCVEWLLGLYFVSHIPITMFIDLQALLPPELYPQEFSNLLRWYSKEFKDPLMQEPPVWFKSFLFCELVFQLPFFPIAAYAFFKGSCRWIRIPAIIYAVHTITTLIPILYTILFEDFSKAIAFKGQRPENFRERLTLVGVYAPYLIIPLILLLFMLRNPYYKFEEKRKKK

[3] = target: Histone deacetylase 1 (Homo sapiens, UniProt Q13547); experiment: Inhibition of human recombinant HDAC1 using Ac-Leu-Gly-Lys(Ac)-AMC as substrate preincubated for 30 mins followed by substrate addition and measured after 15 to 30 mins
Histone deacetylase 1, sequence (Q13547 whole entry): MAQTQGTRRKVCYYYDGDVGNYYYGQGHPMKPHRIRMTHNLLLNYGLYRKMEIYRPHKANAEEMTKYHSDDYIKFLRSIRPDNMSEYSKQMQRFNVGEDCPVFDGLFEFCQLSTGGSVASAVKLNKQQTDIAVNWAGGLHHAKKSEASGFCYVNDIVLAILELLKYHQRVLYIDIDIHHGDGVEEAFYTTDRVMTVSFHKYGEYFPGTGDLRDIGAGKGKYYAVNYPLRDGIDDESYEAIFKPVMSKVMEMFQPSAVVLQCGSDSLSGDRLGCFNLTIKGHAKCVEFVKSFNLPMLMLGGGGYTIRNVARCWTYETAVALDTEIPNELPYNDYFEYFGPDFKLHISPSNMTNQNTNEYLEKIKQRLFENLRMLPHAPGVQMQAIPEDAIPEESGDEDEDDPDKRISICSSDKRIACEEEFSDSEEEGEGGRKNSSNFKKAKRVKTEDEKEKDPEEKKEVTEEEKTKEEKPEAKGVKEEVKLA

[4] = target: Histone deacetylase 2 (Homo sapiens, UniProt Q92769)
Histone deacetylase 2, sequence (Q92769 whole entry): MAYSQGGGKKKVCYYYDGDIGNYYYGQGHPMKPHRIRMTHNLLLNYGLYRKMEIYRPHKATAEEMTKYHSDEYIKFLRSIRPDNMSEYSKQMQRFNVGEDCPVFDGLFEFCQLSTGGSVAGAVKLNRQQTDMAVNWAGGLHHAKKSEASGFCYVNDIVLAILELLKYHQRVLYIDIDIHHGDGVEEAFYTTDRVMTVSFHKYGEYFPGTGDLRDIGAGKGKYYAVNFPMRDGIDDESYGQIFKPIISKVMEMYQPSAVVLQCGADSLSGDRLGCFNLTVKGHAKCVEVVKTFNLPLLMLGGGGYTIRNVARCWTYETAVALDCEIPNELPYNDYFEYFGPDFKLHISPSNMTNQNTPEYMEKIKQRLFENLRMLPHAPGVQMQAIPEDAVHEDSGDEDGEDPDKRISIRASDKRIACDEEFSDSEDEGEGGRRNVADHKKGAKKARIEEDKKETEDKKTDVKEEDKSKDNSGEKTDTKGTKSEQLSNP

[5] = target: T2, Protein Gpr81 (Rattus norvegicus, UniProt G3V906); experiment: Agonist activity at rat GPR81 expressed in T-REx-CHO cells assessed as inhibition of forskolin-stimulated cAMP accumulation preincubated for 30 mins followed by forskolin stimulation and measured after 20 mins by TR-FRET assay; type: cell-based
T2 sequence (G3V906 whole entry): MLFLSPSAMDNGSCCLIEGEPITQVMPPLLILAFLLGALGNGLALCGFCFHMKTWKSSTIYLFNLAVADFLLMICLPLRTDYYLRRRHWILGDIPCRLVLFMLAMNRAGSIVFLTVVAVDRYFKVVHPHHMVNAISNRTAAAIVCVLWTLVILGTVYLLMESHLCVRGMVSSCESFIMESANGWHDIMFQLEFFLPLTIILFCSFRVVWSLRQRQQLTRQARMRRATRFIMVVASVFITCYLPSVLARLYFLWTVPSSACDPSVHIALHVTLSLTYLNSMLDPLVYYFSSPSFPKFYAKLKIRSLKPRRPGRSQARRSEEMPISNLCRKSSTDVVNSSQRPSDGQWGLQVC

[6] = target: Hydroxycarboxylic acid receptor 2 (Rattus norvegicus, UniProt Q80Z39); experiment: Agonist activity at rat GPR109A expressed in T-REx-CHO cells assessed as inhibition of forskolin-stimulated cAMP accumulation preincubated for 30 mins followed by forskolin stimulation and measured after 20 mins by TR-FRET assay; type: functional, cell-based
Hydroxycarboxylic acid receptor 2, sequence (Q80Z39 whole entry): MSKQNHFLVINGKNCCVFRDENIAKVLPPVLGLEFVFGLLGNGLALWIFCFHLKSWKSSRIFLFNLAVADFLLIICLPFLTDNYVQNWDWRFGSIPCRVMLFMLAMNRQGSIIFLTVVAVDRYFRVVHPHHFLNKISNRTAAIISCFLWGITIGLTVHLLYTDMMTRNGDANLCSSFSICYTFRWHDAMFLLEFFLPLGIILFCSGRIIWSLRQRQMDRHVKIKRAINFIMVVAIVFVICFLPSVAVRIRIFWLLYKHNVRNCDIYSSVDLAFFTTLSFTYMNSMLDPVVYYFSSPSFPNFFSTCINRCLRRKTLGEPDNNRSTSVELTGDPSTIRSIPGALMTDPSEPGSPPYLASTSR

[7] = Octanol-water distribution co-efficient, log D of the compound at pH 7.4; type: physicochemical
[8] = target: Chymotrypsinogen A (Bos taurus, UniProt P00766); experiment: Inhibition of bovine alpha-chymotrypsin using succinyl Ala-Ala-Pro-Phe-p-nitroanilide as substrate after 1 hr by Dixon plot analysis
[9] = system: Escherichia coli; type: functional, C3000 ATCC 15597
[10] = system: Staphylococcus aureus; type: functional
[11] = system: Pseudomonas aeruginosa; type: functional, ATCC 10145
[12] = system: Enterococcus faecalis; type: functional, ATCC 19433
[13] = target: Angiotensin-converting enzyme (Homo sapiens, UniProt P12821); experiment: Inhibition of human ACE using Hip-His-Leu-OH as substrate after 1 hr by fluorimetric method
Angiotensin-converting enzyme, sequence (P12821 whole entry): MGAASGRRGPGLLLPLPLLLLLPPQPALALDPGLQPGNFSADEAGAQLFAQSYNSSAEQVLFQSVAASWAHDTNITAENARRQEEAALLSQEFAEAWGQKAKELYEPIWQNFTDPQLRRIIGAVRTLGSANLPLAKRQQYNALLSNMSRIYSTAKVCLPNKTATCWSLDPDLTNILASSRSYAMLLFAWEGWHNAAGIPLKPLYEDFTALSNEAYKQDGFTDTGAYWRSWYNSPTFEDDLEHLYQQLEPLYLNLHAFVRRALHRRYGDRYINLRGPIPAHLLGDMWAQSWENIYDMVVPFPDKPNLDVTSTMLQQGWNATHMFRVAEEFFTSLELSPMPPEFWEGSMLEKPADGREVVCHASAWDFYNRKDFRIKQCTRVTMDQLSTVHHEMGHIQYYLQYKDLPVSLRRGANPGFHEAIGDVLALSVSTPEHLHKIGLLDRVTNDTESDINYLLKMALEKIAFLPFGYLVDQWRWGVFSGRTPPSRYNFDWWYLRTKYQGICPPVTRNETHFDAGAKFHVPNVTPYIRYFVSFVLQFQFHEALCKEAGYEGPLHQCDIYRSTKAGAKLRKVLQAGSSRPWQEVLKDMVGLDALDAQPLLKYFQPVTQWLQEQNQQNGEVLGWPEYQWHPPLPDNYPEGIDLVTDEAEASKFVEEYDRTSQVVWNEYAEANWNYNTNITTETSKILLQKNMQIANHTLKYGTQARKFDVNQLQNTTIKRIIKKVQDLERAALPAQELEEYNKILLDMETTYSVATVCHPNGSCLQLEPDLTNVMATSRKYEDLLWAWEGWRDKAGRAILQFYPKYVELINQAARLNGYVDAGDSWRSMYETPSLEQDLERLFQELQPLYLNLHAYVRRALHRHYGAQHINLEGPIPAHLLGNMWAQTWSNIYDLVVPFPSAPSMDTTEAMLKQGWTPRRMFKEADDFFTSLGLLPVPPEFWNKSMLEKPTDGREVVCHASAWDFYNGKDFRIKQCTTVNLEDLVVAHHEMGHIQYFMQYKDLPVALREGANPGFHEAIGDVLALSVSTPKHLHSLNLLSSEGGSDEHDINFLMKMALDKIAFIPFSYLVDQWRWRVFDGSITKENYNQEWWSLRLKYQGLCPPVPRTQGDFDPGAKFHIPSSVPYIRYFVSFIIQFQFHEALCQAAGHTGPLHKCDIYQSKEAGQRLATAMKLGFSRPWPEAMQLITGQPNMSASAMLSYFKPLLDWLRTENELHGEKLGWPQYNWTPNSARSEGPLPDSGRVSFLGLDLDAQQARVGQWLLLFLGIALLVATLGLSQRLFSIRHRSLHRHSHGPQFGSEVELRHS

[14] = system: HT-29; experiment: Cytotoxicity against human HT-29 cells after 24 hrs; type: functional, cell-based; settings: HT-29, 24 h
[15] = system: MCF7; experiment: Cytotoxicity against human MCF7 cells after 24 hrs; type: functional, cell-based; settings: MCF7, 24 h
[16] = Selectivity ratio of Ki for sigma-2 receptor in rat liver membranes to Ki for sigma-1 receptor in guinea pig brain membranes; type: cell membranes
[17] = target: Sodium-dependent serotonin transporter (Homo sapiens, UniProt P31645); type: cell-based, HEK293
[18] = target: Sodium-dependent noradrenaline transporter (Homo sapiens, UniProt P23975); experiment: Inhibition of human NET expressed in MDCK cells assessed as decrease in [3H]-noradrenaline reuptake after 10 mins by scintillation counting method; type: cell-based
Sodium-dependent noradrenaline transporter, sequence (P23975 whole entry): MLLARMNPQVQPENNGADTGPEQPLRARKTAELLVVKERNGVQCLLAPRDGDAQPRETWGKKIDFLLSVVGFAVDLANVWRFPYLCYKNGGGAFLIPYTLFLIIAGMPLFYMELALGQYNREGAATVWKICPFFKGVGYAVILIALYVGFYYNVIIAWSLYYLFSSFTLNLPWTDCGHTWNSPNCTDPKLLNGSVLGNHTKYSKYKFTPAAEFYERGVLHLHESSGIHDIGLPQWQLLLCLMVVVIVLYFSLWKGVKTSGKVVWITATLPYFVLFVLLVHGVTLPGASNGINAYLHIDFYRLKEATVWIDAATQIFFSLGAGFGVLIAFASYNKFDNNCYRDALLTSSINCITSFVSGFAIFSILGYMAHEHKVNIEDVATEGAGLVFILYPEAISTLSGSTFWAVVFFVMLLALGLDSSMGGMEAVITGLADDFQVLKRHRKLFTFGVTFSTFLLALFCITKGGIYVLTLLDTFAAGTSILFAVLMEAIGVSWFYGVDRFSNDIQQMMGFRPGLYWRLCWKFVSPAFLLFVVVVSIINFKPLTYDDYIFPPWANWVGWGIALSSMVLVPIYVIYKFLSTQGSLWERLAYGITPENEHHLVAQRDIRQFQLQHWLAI

[19] = target: Sodium-dependent dopamine transporter (Homo sapiens, UniProt Q01959); experiment: Inhibition of human DAT expressed in CHOK1 cells assessed as decrease in [3H]-dopamine reuptake after 10 mins by scintillation counting method; type: cell-based
Sodium-dependent dopamine transporter, sequence (Q01959 whole entry, the tested form may be a part): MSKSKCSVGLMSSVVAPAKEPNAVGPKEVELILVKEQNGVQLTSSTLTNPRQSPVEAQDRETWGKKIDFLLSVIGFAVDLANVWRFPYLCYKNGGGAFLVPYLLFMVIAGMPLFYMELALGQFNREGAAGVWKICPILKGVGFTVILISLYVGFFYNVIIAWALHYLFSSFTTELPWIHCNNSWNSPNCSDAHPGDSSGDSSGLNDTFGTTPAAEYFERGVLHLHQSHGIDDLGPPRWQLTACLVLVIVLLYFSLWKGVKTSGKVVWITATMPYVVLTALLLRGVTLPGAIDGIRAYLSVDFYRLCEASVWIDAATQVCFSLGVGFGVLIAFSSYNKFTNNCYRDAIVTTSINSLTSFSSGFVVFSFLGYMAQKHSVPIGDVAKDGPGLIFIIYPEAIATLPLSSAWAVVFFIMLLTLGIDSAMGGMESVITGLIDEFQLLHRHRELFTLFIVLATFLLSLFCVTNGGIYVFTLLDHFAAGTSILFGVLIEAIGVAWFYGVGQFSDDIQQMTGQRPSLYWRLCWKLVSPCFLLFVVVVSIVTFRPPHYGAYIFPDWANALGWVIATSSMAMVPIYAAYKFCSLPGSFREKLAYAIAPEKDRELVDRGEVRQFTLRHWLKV

[20] = target: E3 ubiquitin-protein ligase XIAP (Homo sapiens, UniProt P98170); experiment: Inhibition of N-terminal His-tagged XIAP BIR3 domain (241 to 356 residues) (unknown origin) using fluorescein labeled SMAC peptide as substrate after 60 mins by TR-FRET assay
E3 ubiquitin-protein ligase XIAP (Homo sapiens, UniProt P98170), sequence (P98170 whole entry, the tested form may be a part): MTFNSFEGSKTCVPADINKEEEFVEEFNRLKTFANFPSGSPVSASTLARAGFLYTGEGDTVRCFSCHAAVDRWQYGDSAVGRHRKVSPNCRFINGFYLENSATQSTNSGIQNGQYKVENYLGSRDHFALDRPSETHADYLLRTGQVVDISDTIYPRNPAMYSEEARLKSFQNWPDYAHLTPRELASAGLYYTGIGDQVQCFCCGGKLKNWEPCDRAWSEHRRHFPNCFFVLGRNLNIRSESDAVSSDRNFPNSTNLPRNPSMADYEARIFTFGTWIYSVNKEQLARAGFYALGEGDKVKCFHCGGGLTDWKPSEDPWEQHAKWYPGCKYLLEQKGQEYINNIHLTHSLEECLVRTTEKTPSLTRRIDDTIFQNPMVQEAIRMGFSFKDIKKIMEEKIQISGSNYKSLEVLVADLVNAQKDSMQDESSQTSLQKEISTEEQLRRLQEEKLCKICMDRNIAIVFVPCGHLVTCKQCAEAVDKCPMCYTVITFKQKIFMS

[21] = target: E3 ubiquitin-protein ligase XIAP (Homo sapiens, UniProt P98170, C202A/C213G); experiment: Inhibition of N-terminal His-tagged XIAP BIR2-3 domain (125 to 356 residues) C202A/C213G mutant (unknown origin) using fluorescein labeled SMAC peptide as substrate after 60 mins by HTRF assay
E3 ubiquitin-protein ligase XIAP (Homo sapiens, UniProt P98170, C202A/C213G), sequence (P98170 whole entry C202A/C213G, the tested form may be a part): as the sequence (P98170 whole entry, the tested form may be a part) above, with C202A, C213G counted along it

Sigma non-opioid intracellular receptor 1, sequence (Q60492 whole entry): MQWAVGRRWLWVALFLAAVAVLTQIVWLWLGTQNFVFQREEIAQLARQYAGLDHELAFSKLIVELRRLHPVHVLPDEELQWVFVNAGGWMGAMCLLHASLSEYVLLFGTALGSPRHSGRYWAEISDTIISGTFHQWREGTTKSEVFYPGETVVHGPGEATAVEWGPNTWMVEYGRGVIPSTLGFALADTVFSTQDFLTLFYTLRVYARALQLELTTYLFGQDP

## c1ccc(CCN2CC[Si]3(CCCc4ccccc43)CC2)cc1
[1]
  Ki: 2.9 nM
[2]
  Ki: 39 nM

## COc1ccc(CN2CC[Si]3(CCCc4ccccc43)CC2)cc1
[1]
  Ki: 2.7 nM
[2]
  Ki: 460 nM

## C[Si](O)(O)CCCCCCC(=O)Nc1ccccc1
[3]
  IC50: 2700 nM
[4]
  IC50: 6.3 µM

## CC(C)CCN1CCC2(CCCc3ccccc32)CC1
[1]
  Ki: 1.8 nM
[2]
  Ki: 5.5 nM

## CCOc1cc(Cl)c(C(=O)NC(=O)Nc2nc3c(s2)C[Si](C)(c2ccc(OC)cc2)CC3)cc1N1CCOCC1 (centres undefined)
[5]
  EC50: 1000 nM
[6]
  EC50: 1200 nM
[7]
  logD: 4.8

## COc1ccc(CN2CCC3(CCCc4ccccc43)CC2)cc1
[1]
  Ki: 3.8 nM
[2]
  Ki: 206 nM

## CCOc1cc(Cl)c(C(=O)NC(=O)Nc2nc3c(s2)C[Si](C)(c2c(OC)cccc2OC)CC3)cc1N1CCOCC1 (centres undefined)
[5]
  EC50: 1200 nM
[6]
  EC50: 1300 nM
[7]
  logD: 4.6

## C[C@H](C[Si](O)(O)[C@H](Cc1ccccc1)NC(=O)[C@@H]1CCCN1)C(N)=O
[8]
  Ki: 107 nM

## c1ccc(CCN2CCC3(CCCc4ccccc43)CC2)cc1
[1]
  Ki: 8 nM
[2]
  Ki: 34 nM

## CC(C)(O)c1ccccc1
[9]
  MLC: 0.96%
[10]
  MLC: 0.78%
[11]
  MLC: 0.71%
[12]
  MLC: 0.93%

## C[C@H](CS)C(=O)N1C[Si](C)(C)C[C@H]1C(=O)O
[13]
  IC50: 43 nM

## CCC(C)(C)O [AMYLENE HYDRATE]
[9]
  MLC: 5.09%
[10]
  MLC: 4.17%
[11]
  MLC: 3.96%
[12]
  MLC: 5.67%

## C[Si](C)(O)c1ccccc1
[9]
  MLC: 0.27%
[10]
  MLC: 0.26%
[11]
  MLC: 0.35%
[12]
  MLC: 0.42%

## CC(C)(C)O [TERT-BUTANOL]
[9]
  MLC: 13.54%
[10]
  MLC: 10.61%
[11]
  MLC: 9.79%
[12]
  MLC: 13.33%

## CCOC(=O)/C(=N/NC(=O)c1ccc(CO[Si](C)(C)C(C)(C)C)o1)c1ccccc1
[14]
  IC50: 8.6 µg/mL (≈ 20 µM)
[15]
  IC50: 13.3 µg/mL (≈ 30.9 µM)

## CC(C)CCN1CC[Si]2(CCCc3ccccc32)CC1
[1]
  Ki: 0.3 nM
[2]
  Ki: 19 nM
[16]
  Ratio Ki: 63

## COC(=O)/C(=N/NC(=O)c1ccc(CO[Si](C)(C)C(C)(C)C)o1)c1ccccc1
[15]
  IC50: 13.3 µg/mL (≈ 31.9 µM)

## CC[Si](C)(C)O
[9]
  MLC: 1.04%
[10]
  MLC: 0.8%
[11]
  MLC: 0.87%
[12]
  MLC: 1.14%

## CCOc1cc(Cl)c(C(=O)NC(=O)Nc2nc3c(s2)CCCC3)cc1N1CCOCC1
[5]
  EC50: 240 nM
[6]
  EC50: 2100 nM
[7]
  logD: 4.2

## COc1ccc(C(CN(C)C)[Si]2(O)CCCC2)cc1 (racemic)
[17]
  IC50: 904 nM
[18]
  IC50: 275 nM
[19]
  IC50: 707 nM

## c1ccc(CN2CCC3(CCCc4ccccc43)CC2)cc1
[1]
  Ki: 2 nM
[2]
  Ki: 44 nM

## CC(C)OC(=O)/C(=N/NC(=O)c1ccc(CO[Si](C)(C)C(C)(C)C)o1)c1ccccc1
[14]
  IC50: 6.4 µg/mL (≈ 14.4 µM)
[15]
  IC50: 3.6 µg/mL (≈ 8.1 µM)

## C=C[Si](C)(C)O
[9]
  MLC: 1.23%
[10]
  MLC: 1.04%
[11]
  MLC: 1%
[12]
  MLC: 1.32%

## C=CC(C)(C)O
[9]
  MLC: 5.23%
[10]
  MLC: 4.37%
[11]
  MLC: 3.67%
[12]
  MLC: 5.63%

## CN[C@@H](C)C(=O)N[C@@H](Cc1ccc(C#CC(=O)N[C@H]2C[C@@H](C(=O)N[C@@H]3CCCc4ccccc43)N(C(=O)[C@@H](NC(=O)[C@H](C)NC)C(C)(C)C)C2)cc1)C(=O)N1C[Si](C)(C)C[C@H]1C(=O)N[C@@H]1CCCc2ccccc21
[20]
  IC50: 3 nM
[21]
  IC50: 4 nM

## c1ccc(CN2CC[Si]3(CCCc4ccccc43)CC2)cc1
[1]
  Ki: 1.1 nM
[2]
  Ki: 243 nM
[16]
  Ratio Ki: 221

From ChEMBL document CHEMBL4229328, “Quest for Novel Chemical Entities through Incorporation of Silicon in Drug Scaffolds” (J Med Chem, 2018)
